Measured values: publication PMC9404989, “Design and Evaluation of Short Bovine Lactoferrin-Derived Antimicrobial Peptides against Multidrug-Resistant Enterococcus faecium” (Antibiotics, 2022)
No end group written: not given here.

Tests used:
[1] = tested on: E. faecium strain C68 exponential cells; assay: Exponential cell time-kill assay; assay type: cell-based, Enterococcus faecium; conditions: 10× MIC, PBS
Description: For the generation of antibiotic-induced persister cells, we followed an established protocol. In brief, 25 mL of E. faecium strain C68 culture was grown to the stationary phase and then treated with gentamicin at 400 μg/mL for 5 h. We then disposed of the antibiotic-containing media and regrew the bacteria for another 18 h in fresh media. To produce stable persister cells, we repeated the cycle of antibiotic exposure and regrowth five times. The bacteria culture was then washed with the same volume of phosphate-buffered saline (PBS) 3× times and adjusted to 1 × 10^7 CFU/mL in PBS. For killing kinetics of the persister cells, we added 1 mL of the cell suspension to the wells of a 2 mL deep well assay block (Cat No. 3960, Corning, NY, USA) containing 10× MICs of 5L and 6L and incubated them at 37 °C, with shaking at 225 rpm. At specific times (0, 15, 30, 60, and 120 min), we collected 20 μL samples, diluted them serially, and then plated them on tryptic soy agar (TSA) (BD Difco, Franklin Lakes, NJ, USA) plates for 18 h at 37 °C for colony counting. We performed the experiments in duplicate. As a comparison, we prepared the exponential cells of E. faecium strain C68 in PBS and analyzed their killing kinetics in the same manner as described for persister cells.

[2] = tested on: E. faecium strain C68; assay: microbe, parasite or virus in culture; assay type: cell-based, Enterococcus faecium; conditions: strain C68, 18 h
Description: To determine the MICs of peptides, we used the broth microdilution method described by the Clinical and Laboratory Standards Institute. We made serial dilutions of 10× concentration (10 µL) for each peptide in duplicates in 96-well plates (Cat No. 3595, Corning, New York, NY, USA). We added 90 µL of logarithmic-phase bacteria at 5 × 10^5 CFU/mL (in BHI media) to the peptides and then incubated the plates at 37 °C for 18 h. We measured the OD600 absorbance readings using the Spectra Max i3x spectrophotometer (Molecular Devices, San Jose, CA, USA) and determined the MIC as the peptide concentration that inhibits the growth of bacteria.
To investigate the activity of peptides in various salt concentrations, we included physiologically relevant salts in the BHI medium.

[3] = tested on: HepG2 cells; assay: Mammalian cell cytotoxicity assay (WST-1); assay type: cell-based, human; conditions: 24 h, WST-1, triplicates
Description: We used liver-derived HepG2 cells to evaluate AMP cytotoxicity behavior in mammalian cells based on an established protocol. We maintained the HepG2 cells at 37 °C in 5% CO2 in Dulbecco’s Modified Eagle Medium (DMEM) (Gibco, Waltham, MA, USA) supplemented with 10% fetal bovine serum (FBS) (Gibco, Gaithersburg, MD, USA) and 1% penicillin/streptomycin (Gibco, Gaithersburg, MD, USA). Next, we harvested and resuspended the cells in a fresh medium and distributed 50 µL ([…]) in a 96-well plate containing 50 µL of serially diluted AMPs in serum and antibiotic-free DMEM and incubated the plates at 37 °C in 5% CO2 for 24 h. Before the end of the incubation period (at the 20th hour), we added 10 µL of 2-(4-iodophenyl)-3-(4-nitrophenyl)-5-(2,4-disulfophenyl)-2H-tetrazolium (WST-1) (Roche, Mannheim, Germany) to each well and monitored the reduction of WST-1 at 450 nm using a SpectraMax i3x (Molecular Devices, San Jose, CA, USA). We performed the assays in triplicates and calculated the percentage of cell survival.

[4] = tested on: E. faecium strain C68 established biofilms; assay: Confocal microscopy of peptide-treated established biofilms (LIVE/DEAD); assay type: cell-based, Enterococcus faecium; conditions: 10× MIC, 24 h established biofilms, 24 h treatment
Description: We prepared exponential cultures of E. faecium strain C68 (adjusted to 1 × 10^6 CFU/mL) in BHI media (supplemented with 0.2% glucose) from overnight grown cultures. To establish biofilms, we added 1 mL of the bacterial culture to the chambers of cuvettes (borosilicate cover glass, Nunc Cat. No. 155380) and maintained them at 37 °C for 24 h under static conditions. We carefully removed the media from the wells after incubation and then washed the wells with PBS (Gibco, MD, USA) to remove loosely attached planktonic cells. We treated the established biofilms in each well with 100 µL of serially diluted 10× MIC peptide solution (5L and 6L) followed by the addition of 900 μL of BHI media (supplemented with 0.2% glucose) and incubated the cuvettes for an additional 24 h at 37 °C. After incubation, we washed the cuvettes carefully with PBS (Gibco, MD, USA) to remove the planktonic cells and stained the biofilms with 10 µL of LIVE/DEAD kit (Molecular Probes, Life Technologies, Eugene, OR, USA) according to the manufacturer’s instructions. Finally, we visualized the biofilms using a confocal microscope (Zeiss 880) and processed the data via Zen 2010 software (Carl Zeiss, Jena, Germany).

[5] = tested on: E. faecium strain C68 established biofilms; assay type: cell-based, Enterococcus faecium; conditions: for established biomass reduced: at 32 µg/mL, 24 h established biofilms
Description: We prepared exponential cultures of E. faecium strain C68 (adjusted to 1 × 10^8 CFU/mL) in BHI media (supplemented with 0.2% glucose) from overnight grown cultures. We added 100 µL of the bacterial culture to wells of flat-bottomed 96-well polystyrene microtiter plates (Cat No. 3595, Corning, NY, USA). We then incubated the plates at 37 °C for 24 h in static conditions to allow biofilm formation. After incubation, we carefully pipetted out the media and washed the wells with PBS (Gibco, Waltham, MA, USA) to remove loosely attached planktonic cells. We treated the established biofilms in each well with 10 µL of serially diluted 10× peptide solution, followed by the addition of 90 μL of BHI media (supplemented with 0.2% glucose). The plates were incubated for another 24 h at 37 °C before processing for biomass and live-cell contents. We quantitated the concentration of peptide that disrupts 50% of established biofilms (MBEC50).

[6] = strain C68 established biofilms, 24 h

Row | Substance | time to eliminate all 10^7 CFU of exponential cells [1] [min] | MIC + CaCl2 (2.5 mM) [2] [µg/mL] | MIC + MgSO4 (1 mM) [2] [µg/mL] | MIC + NaCl (150 mM) [2] [µg/mL] | MIC + ZnSO4 (8 µM) [2] [µg/mL] | concentration without cell death in HepG2 cells [3] [µg/mL] | killing of bacteria inside biofilms (confocal, LIVE/DEAD) [4] | established biomass reduced [5] [%] | MBEC50 (established biomass) [5, 6] [µg/mL] | live bacteria killed within matured biofilm matrix [5, 6] [%]
1 | RRWLWRLRWLWR-NH2 [Peptide 6L] | 60 | 8 | 8 | 4 | 4 | ≥ 128 | killed most of the bacteria inside the biofilms | 75 | 16 | –
2 | RRWLWLRRWLWR-NH2 [Peptide 5L] | 120 | 16 | 8 | 4 | 4 | ≥ 128 | killed most of the bacteria inside the biofilms | 75 | 16 | 50
